Reference: ChEMBL document CHEMBL3507680, “University of Dundee, Gates Library screen for HepG2 cell viability”

Test: Human HepG2 cell viability assay in 384 well format
Assay type: toxicity, cell-based
Set-up: dose 125 nL, time 70.5 hour; cytotoxicity at 70.5 h: concentration not given beside the values
Details: HepG2 cells, read-out: Inhibition

| SMILES | cytotoxicity at 70.5 h |
| --- | --- |
| CCNc1ncc(C(=O)NCC2OCCc3ccccc32)cn1 (configuration not stated) | -3.21% |
| O=C1Nc2ccccc2NC12CCN(c1cccc(C(F)(F)F)n1)CC2 | 52.4% |
| CCc1cnc(NCc2ccccc2Cn2cccn2)nc1 | 0.071% |
| CSCCCN1C[C@H](NC(=O)c2ccc(CO)cc2)[C@@H](C2CC2)C1 | -9.41% |
| CSCC(=O)N1CCc2c(cnc(C)c2-c2noc(-c3cscn3)n2)C1 | -15.6% |
| COc1ccc(-c2cc(CNc3ncnc4c3CCNCC4)no2)cc1 | 23.4% |
| c1nc(NCc2cc3n(n2)CCN(C2CCCCC2)C3)c2nc[nH]c2n1 | -11.7% |
| Cn1cc(C(=O)N2CCCCC2CCc2ccc(O)cc2)cn1 (configuration not stated) | -10.3% |
| COCCCn1cnnc1CNc1cc(C)nc2ccnn12 | -4.02% |
| CC(C)CCN(C)Cc1ccccc1-c1nc(C(C)C)cc(=O)[nH]1 | 0.496% |
| CSCC(=O)N1C[C@H]2CC[C@@H]1CN(C1Cc3ccccc3C1)C2 | -9.76% |
| COC[C@]1(O)CCN(Cc2ccc(N(C)C)nc2)CC1(C)C | -17.9% |
| CN1CCC(N(Cc2ccncc2)C(=O)COCC2CCCCO2)CC1 (configuration not stated) | -1.65% |
| Cc1ccccc1CN1C[C@@H]2CC[C@H](C1)N(CC1CCC1)C2=O | -4.63% |
| CCC(=O)N1CCCC1C(=O)N1CCC(Cc2ccc(F)cc2)CC1 (configuration not stated) | -9.21% |
| CS(=O)(=O)NCCC(=O)N1CCC(Cc2ccc(CO)cc2)C1 (configuration not stated) | 1.14% |
| O=C(N[C@@H]1CCN(c2nccc3ccccc23)C[C@H]1O)c1cnccn1 | 9.52% |
| CC(C)(CO)Nc1ccc(-c2nc(-c3ccccc3F)no2)cn1 | -5.95% |
| COCC[C@]1(O)CCN(S(=O)(=O)c2ccc(C)cc2OC)C[C@H]1C | -4.64% |
| COc1ccc(OC)c2c(C)cc(N(C)Cc3cc(C)on3)nc12 | 23.1% |
| CC(C)Cn1cncc1CNC(=O)c1cccc(CC2CCNCC2)c1 | 8.07% |
| Cc1ncc(CNC2CC(=O)N(CCc3ccc(F)cc3)C2)n1C (configuration not stated) | -10.7% |
| Cc1nnsc1C(=O)NCc1cccnc1N1CCc2ccccc2C1 | 16.7% |

| SMILES | cytotoxicity at 70.5 h |
| --- | --- |
| CCN1CCCC(c2c(-c3ccccc3)ncn2CC(N)=O)C1 (configuration not stated) | -0.352% |
| CCCc1cc(NC2CCN(Cc3ccccn3)CC2)n2nccc2n1 | -4.87% |
| C[C@@H]1CN(C2(C(=O)N3CCNCC3)Cc3ccccc3C2)C[C@H](C)O1 | -2.17% |
| CC(C)c1noc(-c2ccc(NCC3CCCOC3)nc2)n1 (configuration not stated) | -12.4% |
| COc1ccc(CC2CN(C3CCSCC3)CCO2)cc1 (configuration not stated) | 1.2% |
| NC(=O)NCC(=O)N1CCCC(c2nccn2CC2CCC2)C1 (configuration not stated) | -1.33% |
| CCc1[nH]c2c(CNC(=O)[C@@H]3CCCN3C)cc(C)cc2c1C | 6.71% |
| O=C1O[C@@H]2CN(c3cnccn3)C[C@@H]2N1CCCc1ccc(F)cc1 | -7.8% |
| O=C(NCCCc1nnc2ccccn12)c1ccccc1C1CCNC1 (configuration not stated) | -0.698% |
| CCc1nc(CN(CCc2ccccc2)C2CCN(C)CC2)no1 | -9.81% |
| CNc1nc(N2CCC3(CCCNC3=O)C2)nc2c1CCC2 (configuration not stated) | -6.8% |
| CN(C)c1ccc(CC(=O)N2CCOCC(O)C2)cc1 (configuration not stated) | 22.5% |
| COc1cccc(OC)c1CN1CC(=O)N(c2ccc(C)cc2)CC1C (configuration not stated) | 1.44% |
| CN1C(=O)CC(C(=O)O)C12CCN(Cc1ccc(Cl)c(F)c1)CC2 (configuration not stated) | 9.92% |
| O=C(C1CCC1)N1CCN(Cc2ccccc2F)[C@H]2CS(=O)(=O)C[C@H]21 | -4.65% |
| O=C(c1ccc[nH]1)N1CCc2c(cccc2S(=O)(=O)N2CCOCC2)C1 | 29.8% |
| COc1ncc(CN2CCC3(CCNC(=O)CC3)CC2)cn1 | 4.98% |
| CCCN(CC)Cc1ccc(C(=O)NCC2COCCO2)c(=O)[nH]1 (configuration not stated) | -6.16% |
| CN(Cc1ccncc1)Cc1cnn(-c2ccc(F)cc2)c1 | -13.3% |
| CCCS(=O)(=O)N1C[C@@H]2CC[C@H](C1)N(Cc1cscn1)C2=O | -9.73% |
| COc1cccc(OCCCc2cc(C#N)ccn2)c1 | 11% |
| O=C(NCCc1nc(-c2ccccn2)no1)c1ccc(C2CCCO2)s1 (configuration not stated) | -5.15% |
| Cc1nc(CCNC(=O)C2CC(=O)N(C(C)(C)C)C2)sc1Cl (configuration not stated) | 4.69% |

| SMILES | cytotoxicity at 70.5 h |
| --- | --- |
| CCOCc1nc2c(c(N(C)Cc3snnc3C)n1)CCNCC2 | -9.47% |
| COCCn1ccnc1CN(Cc1ccccn1)Cc1sccc1C | -7.84% |
| COc1ccc(F)c(-c2cc(C(=O)NC3CC3)ccn2)c1 | -14.2% |
| O=C(NCc1cccc(C(F)(F)F)c1)C(c1cccnc1)N1CCCC1 (configuration not stated) | -4.98% |
| CC(c1cccc(-c2ncc(C#N)c(N)n2)c1)N(C)C (configuration not stated) | -12.5% |
| CN(C)CCNc1cc(-c2ccccc2C(N)=O)c2cc[nH]c2n1 | -8.6% |
| O=C(Cn1ccnc1)N(CCO)CCSc1ccc(Cl)cc1 | -8.84% |
| COc1ccc(C(=O)C2CCCN(c3cc(OC)ncn3)C2)c(C)c1 (configuration not stated) | 10.1% |
| Nc1nc2c(c(NC(Cn3cccn3)c3ccccc3)n1)CCNCC2 (configuration not stated) | 0.802% |
| O=S(=O)(c1cccnc1)N1C[C@@H]2CC[C@H](C1)N(Cc1ccccn1)C2 | -5.11% |
| Cc1nc(N2CCCCC2)ncc1-c1cc(=O)[nH]c(N2CCCC2)n1 | 2.6% |
| CCC(NC(=O)C1CCN(S(C)(=O)=O)CC1)c1ccc(C)cc1 (configuration not stated) | -3.68% |
| CCN(c1ccc(C(=O)N2CCCCCC2)cc1)S(=O)(=O)CC | -2.32% |
| CN(c1ccc(C(=O)NCCN2CCOCC2)c(Cl)c1)S(C)(=O)=O | -1.41% |
| CC(C)Cc1cc(C(=O)NCC(O)c2ccc(F)cc2)n(C)n1 (configuration not stated) | -16.2% |
| CN1CCC(Oc2ccc(NC(=O)c3ccccc3)cc2)CC1 | -9.56% |
| Cc1cc(Cc2ccc(S(=O)(=O)N3CCSCC3)cc2)c(=O)[nH]n1 | 1.5% |
| O=C(c1ncccc1O)N1CCN(Cc2ccco2)C(CCO)C1 (configuration not stated) | -11.1% |
| CC(C)[C@@H]1CN(Cc2ccccc2C#N)C[C@H]1N(C)C | 31.1% |
| Cc1cccc(NCc2nn(C)c(=O)[nH]2)c1 | -11% |
| CCC(C(=O)NCc1ccccn1)N(c1cccc(C)c1)S(C)(=O)=O (configuration not stated) | -1.44% |
| CCCN1CCCn2nc(CNC(=O)CC(C)n3ccnc3C)cc2C1 (configuration not stated) | 9.04% |
| CCN(c1ccc(C(=O)N2CCC(C(N)=O)CC2)cc1)S(=O)(=O)CC | 15.4% |

| SMILES | cytotoxicity at 70.5 h |
| --- | --- |
| CCCOCC1CCN(C(=O)c2cnc(-c3csc(C)n3)nc2O)C1 (configuration not stated) | -8.59% |
| Cc1ccc(-c2noc(CC[C@@H]3CCCN4CCCC[C@H]34)n2)nn1 | -3.37% |
| COc1ccc(N2Cc3n[nH]c(=O)n3C2=O)cc1 | -3.14% |
| CN(c1ccc(Cl)c(C(=O)NCCCN2CCOCC2)c1)S(C)(=O)=O | 3.59% |
| CC(C)c1cc(-c2nn3c(C(C)C)nnc3s2)[nH]n1 | -11.4% |
| CC(=O)Cn1c(C)cc(=O)c2cc(F)ccc21 | 1.19% |
| Cc1nc(N2CCCN(c3ncccn3)CC2)c2cnn(C)c2n1 | -3.77% |
| C/C=C(\C)CN1C[C@H](NC(=O)CN2CCCC2=O)[C@@H](c2ccc(C)o2)C1 | 9.35% |
| Cc1nc2c(c(=O)n1C)CCN(Cc1cc3ccccc3[nH]1)CC2 | 0.793% |
| CCc1nc(NC2CCN(CC(=O)NC3CC3)CC2)c2cnn(C)c2n1 | 14.5% |
| Cc1cc(C(=O)NCCC2CCN(C)CC2)ccc1N(C)S(C)(=O)=O | -10.7% |
| CCN1CCC(CC(=O)N2CCc3sc(C(=O)N(C)C)cc3C2)CC1 | 20.6% |
| OC1(c2cn(C3CCN(C4CCSC4)CC3)nn2)CCCC1 (configuration not stated) | -4.72% |
| CC(NC(=O)CN(C)S(C)(=O)=O)c1ccc(F)cc1 (configuration not stated) | -11.2% |
| COCc1noc(-c2ccc(N(C)Cc3c(C)n[nH]c3C)nc2)n1 | -5.36% |
| CCOc1ccc(CC(=O)N2CCCC2c2cc(C)on2)cc1 (configuration not stated) | -3.15% |
| CCNc1ncc(C(=O)NC2CCSC2)cn1 (configuration not stated) | 8.53% |
| O=C1CC(c2ccsc2)c2snc(C(=O)O)c2N1 (configuration not stated) | 8.48% |
| Cc1ccc(F)cc1NC(=O)C1CCCN1C(=O)C(C)C (configuration not stated) | -5.39% |
| Cc1cccnc1N1CCN(C(=O)CCc2cn3ccccc3n2)CC1 | 15.3% |
| Cc1cc(=O)c2cc(F)ccc2n1CC(=O)O | -3.7% |
| CCN(Cc1ccc(O)c(C(=O)O)c1)CC1CCOCC1 | -0.0411% |
| COc1ccc(C2CCCN2S(=O)(=O)c2cc(F)ccc2F)cc1 (configuration not stated) | -6.85% |

| SMILES | cytotoxicity at 70.5 h |
| --- | --- |
| O=C(c1ccc2nccn2c1)N1CCC(CCn2cccn2)CC1 | -9.36% |
| CCN(c1ccc(C(=O)N2CCC(C)CC2)cc1)S(=O)(=O)CC | 2.02% |
| Cc1cnccc1N1CCN(c2nccc(CCC(F)(F)F)n2)CC1 | -9.06% |
| COc1ccc(CNCC(O)c2cccc(O)c2)cc1Br (configuration not stated) | -3.02% |
| Cc1ncn(-c2cc(N3CCN(S(C)(=O)=O)CC3)ncn2)c1C | -4.92% |
| CCn1c(C)nnc1SCCNc1nc(C)nc2c1cnn2C | -9.87% |
| O=C(c1cccc(CO)n1)N1CCOC(c2ccc(Cl)c(Cl)c2)C1 (configuration not stated) | -9.7% |
| COCCC(=O)N1Cc2cnc(Cc3ccc(OC)cc3)nc2C1 | -1.53% |
| CC(C)CNC(=O)c1ccc2c(=O)n(-c3ccccc3)cnc2c1 | -5.61% |
| CN(C)C1CCCN(C(=O)c2ccc3sc4c(c3c2)CCNC4=O)CC1 (configuration not stated) | 1.18% |
| CC(C)Oc1ccccc1OCCN1C(=O)CCNC1=O | 22.4% |
| CCCNC(=O)CCC(=O)N1CCC(c2noc3cc(F)ccc23)CC1 | -8.21% |
| CC(C)C(Nc1nc(C(F)(F)F)nc2ccccc12)C(=O)O (configuration not stated) | -1.94% |
| COCc1nc(C2CC2)nn1-c1cc(Cl)ccc1OC | -3.71% |
| CS(=O)(=O)N1CCN(c2ccnc(N3CCCC3)n2)CC1 | -4.19% |
| COc1ccc(NC(=O)Cn2nc(C)c(C)cc2=O)c(OC)c1 | -8.67% |
| Cc1cccc(CN2CCCC(O)(CNCCN3CCCCC3)C2=O)c1 (configuration not stated) | 2.73% |
| CC(=O)c1cn(CC(=O)N2CCC3(CC2)OCCO3)c2ccccc12 | -5.36% |
| CCC(Oc1ccc(N(C)S(C)(=O)=O)cc1)C(N)=O (configuration not stated) | -5.31% |
| CCOCCN1C[C@H](c2cccc(OC)c2)[C@@H](N)C1 | -4.15% |
